Assay results taken from patent US20090209492A1, “Lipase Inhibitors” (TRUSTEES OF TUFTS COLLEGE, priority 2004, published 2009).

Target: T1, endothelial lipase (Homo sapiens, UniProt Q9Y5X9)
T1 sequence (Q9Y5X9 21-500): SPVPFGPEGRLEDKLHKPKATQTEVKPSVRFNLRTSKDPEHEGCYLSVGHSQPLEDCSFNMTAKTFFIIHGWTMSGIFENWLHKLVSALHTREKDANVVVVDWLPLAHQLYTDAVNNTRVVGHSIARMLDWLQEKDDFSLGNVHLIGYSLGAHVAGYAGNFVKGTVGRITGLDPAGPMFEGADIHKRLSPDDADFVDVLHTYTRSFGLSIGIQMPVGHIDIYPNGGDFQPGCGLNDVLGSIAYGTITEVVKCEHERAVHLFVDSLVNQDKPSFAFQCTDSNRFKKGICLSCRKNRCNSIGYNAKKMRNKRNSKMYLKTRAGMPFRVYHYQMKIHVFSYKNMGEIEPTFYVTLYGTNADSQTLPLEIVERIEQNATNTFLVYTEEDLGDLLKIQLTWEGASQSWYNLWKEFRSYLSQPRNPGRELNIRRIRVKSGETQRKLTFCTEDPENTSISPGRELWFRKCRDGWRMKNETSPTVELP
Assay: Endothelial lipase inhibiting activity of boronic acids
Type: biochemical
Settings: for inhibition at 50 µM: 50 micromolar solution of each compound; for IC50: endothelial lipase
Experimental: The endothelial lipase inhibiting activity of various aliphatic boronic acids was tested.
The endothelial lipase inhibiting activity of various aromatic boronic acids was tested.

Row | Compound | inhibition at 50 µM (aromatic boronic acids) [%] | inhibition at 50 µM (aliphatic boronic acids) [%] | other results
1 | CC(=O)c1ccc(B(O)O)cc1 | 80 |  | IC50 (aromatic boronic acids): 26 µM
2 | CCCCCCC/C=C/B(O)O |  | 82 | 
3 | CCCCCCCCCCCCCCB(O)O |  | 89 | IC50 (aliphatic boronic acids): 1 µM
4 | CCCCCCB(O)O |  | 53 | 
5 | CCCCCC/C=C/B(O)O |  | 77 | 
6 | OB(O)C1CCCC1 | 7 |  | 
7 | CCc1ccc(B(O)O)cc1 | 83 |  | IC50 (aromatic boronic acids): 11 µM
8 | CCCCCCCCCCCCCCCB(O)O |  | 90 | 
9 | Cc1ccc(B(O)O)cc1 | 88 |  | IC50 (aromatic boronic acids): 17 µM
10 | C=CCCCB(O)O |  | 72 | IC50 (aliphatic boronic acids): 26 µM
11 | OB(O)Cc1ccccc1 | 10 |  | 
12 | CCCCCCCCCCCCCCCCB(O)O |  | 62 | 
13 | CC(C)CB(O)O |  | 9 | 
14 | OB(O)C1CCCCC1 | 1 |  | 
15 | CCCCC/C=C/B(O)O |  | 63 | 
16 | O=Cc1ccc(B(O)O)cc1 | 60 |  | 
17 | CCCCCB(O)O |  | 42 | 
